Measurements published in patent US20230220481A1, “Method for Determining Sensitivity to 2,2'-Dithio-bis-Ethane Sulfonate” (Lantern Pharma Inc., priority 2020, published 2023).

Key:
[1] = tested on: Non-small cell lung cancer cell line HCC827; assay: Gene expression level changes by whole transcriptome profiling (RNAseq) in HCC827 cells; format: cell-based; conditions: 2 h treatment, 1 mM and 15 mM, versus untreated control
Source text: Another embodiment includes a method for treating or determining the sensitivity of non-small cell cancer to a 2,2′-dithio-bis-ethane sulfonate treatment by assessing the level of NRF2 (SEQ ID NO: 1) expression and at least one gene selected from the group consisting of: NQO1 (SEQ ID NO: 2), PHGDH (SEQ ID NO: 3), HMOX1 (SEQ ID NO: 4), SLC7A11 (SEQ ID NO: 5), SRXN1 (SEQ ID NO: 6), SOX2(SEQ ID NO: 7), GPX2 (SEQ ID NO: 8), GPX3 (SEQ ID NO: 9), and GPX7(SEQ ID NO: 10). For illustration, non-small cell lung cancer cell line HCC827 was treated for 2 h with 2,2′-dithio-bis-ethane sulfonate alone at concentrations of 1 mM and 15 mM and gene expression level changes were measured by whole transcriptome profiling using RNAseq. A control sample with no treatment for the same duration was used as the baseline gene expression level. A greater than 1.5 to 2-fold expression level change can be indicative of 2, 2′-dithio-bis-ethane sulfonate sensitivity.
Non-small cell lung cancer cell line HCC827 was treated for 2 h with disodium 2,2′-dithio-bis-ethane sulfonate alone at concentrations of 1 mM and 15 mM and gene expression level changes were measured by whole transcriptome profiling using RNAseq. A control sample with no treatment for the same duration was used as the baseline gene expression level. […]

[2] = tested on: nuclear factor erythroid 2-related factor 2 (Nrf2); assay: Induction of nuclear expression of Nrf2 in NGF-differentiated PC12 cells, western blotting; format: cell-based, rat; conditions: PC12 neuron-like cells
Protocol: PC12 cells were suspended in DMEM containing 7.5% inactivated fetal bovine serum and 7.5% inactivated horse serum. After seeding onto a type I collagen-coated 100 mm culture dish, these cells were incubated for 7 days in the presence of 100 ng/mL NGF for priming. Culture medium was then replaced with Neurobasal™ medium supplemented with N-2 supplement and 2 mM glutamine containing NGF 30 ng/mL, and cells were incubated again for 3 days for differentiation into neuron-like cells. Next, these cells were treated with 2,2′-dithio-bis-ethane sulfonate 6 mM for 1, 2, 4 and 8 hours, or with a known Nrf2 activator, tert-butylhydroquinone (t-BHQ) 30 μM for 3 hours. Nuclear proteins were then extracted from the cells for detection of nuclear expression of Nrf2 by western blotting.

SMILES	gene expression level change of NRF2 biomarker genes (NQO1, PHGDH, HMOX1, SLC7A11, SRXN1, SOX2, GPX2, GPX3, GPX7) [1]	time at which nuclear expression of Nrf2 started after the start of treatment ([2]; 6 mM) [h]	time until which apparent expression of Nrf2 persisted after the start of treatment ([2]; 6 mM) [h]	induction of nuclear expression of Nrf2 ([2]; 6 mM, 1, 2, 4 and 8 hours)	induction of nuclear expression of Nrf2 ([2]; 30 μM, 3 hours)
O=S(=O)([O-])CCSSCCS(=O)(=O)[O-].[Na+].[Na+] [2,2′-dithio-bis-ethane sulfonate, disodium 2,2′-dithio-bis-ethane sulfonate]	nine genes are upregulated	1	8	induction of nuclear expression of Nrf2	–
CC(C)(C)c1cc(O)ccc1O [t-BHQ, tert-butylhydroquinone, reference compound]	–	–	–	–	induction of nuclear expression of Nrf2
